This is an account of results in article PMC7435711, “Synthesis and Pharmacological Effects of Diosgenin–Betulinic Acid Conjugates” (Molecules, 2020).

Molecules are shown by their SMILES. Read-outs that look alike come from different tables or passages of the source.

Series [1] has as its system human colon carcinoma (HCT 116) cells. Briefly: Cytotoxicity screening test, HCT 116. The note with it: HCT-116, 72 h, read-out: Cytotoxicity IC50, HCT 116.
The test system of series [2] is human T-lymphoblastic leukemia (CEM) cells. Briefly: Cytotoxicity screening test, CEM. The settings on record: CCRF-CEM, 72 h, read-out: Cytotoxicity IC50, CEM.
Protocol: (§1) Doxorubicin was used as a positive control.
(§2) The screening cell lines, T-lymphoblastic leukemia (CEM), cervical carcinoma (HeLa), breast carcinoma (MCF7), and human foreskin fibroblasts (BJ) were obtained from the American Type Culture Collection (Manassas, VA, USA). Cells were cultured in DMEM (Dulbecco’s Modified Eagle Medium, Sigma Aldrich, Darmstadt, Germany). Media used were supplemented with 10% fetal bovine serum, 2 mM L-glutamine, and 1% penicillin-streptomycin (all from Sigma Aldrich, Darmstadt, Germany). The cell lines were maintained under standard cell culture conditions at 37 °C and 5% CO2 in humid environment. Cells were subcultured twice or three times a week using the standard trypsinization procedure.
Series [3] in a line: Cytotoxicity screening test, BJ reference cells. The settings on record: human, BJ normal foreskin fibroblasts.
Protocol: as §1, §2
Series [4] deals with human breast adenocarcinoma (MCF7) cells. Briefly: Cytotoxicity screening test, MCF7. The settings on record: MCF7, 72 h, read-out: Cytotoxicity IC50, MCF7.
Protocol: as §1, §2
Series [5] deals with human cervical cancer (HeLa) cells. Briefly: Cytotoxicity screening test, HeLa. The note with it: 72 h, read-out: Cytotoxicity IC50, HeLa.
Protocol: as §1, §2
In series [6] the test system is CEM, MCF7, HeLa, HCT 116 cancer cell lines and BJ fibroblasts. The series is described as follows: Cytotoxicity screening tests, summary statements over the cell line panel. The note with it: for IC50: Homo sapiens, 72 h, read-out: IC50 against all tested cell lines.
Protocol: as §1, §2
Series [7] has the same test system.
Protocol: as §1, §2
A short description of a further series: in vitro. The settings on record: human.

Protocol for in vitro: as §1, §2

Regarding `C[C@@H]1CC[C@@]2(OC1)O[C@H]1C[C@H]3[C@@H]4CC=C5C[C@@H](O)CC[C@]5(C)[C@H]4CC[C@]3(C)[C@H]1[C@@H]2C` [Compound 1, (3β,25R)-spirost-5-en-3-ol, reference compound], the IC50 in series [1], in series [2], in series [4], in series [5] and in series [6] was above 50 µM throughout. Further, in series [3], the IC50 (commonly the concentration needed to halve the response being measured) at 72 h was above 50 µM.
Regarding `C=C(C)[C@@H]1CC[C@]2(C(=O)O)CC[C@]3(C)[C@H](CC[C@@H]4[C@@]5(C)CC[C@H](O)C(C)(C)[C@@H]5CC[C@]43C)[C@@H]12` [Compound 2, 3β-hydroxylup-20(29)-en-28-oic acid, reference compound], the IC50 in series [1], in series [2], in series [4], in series [5] and in series [6] was above 50 µM in each case. Moreover, in series [3], the IC50 at 72 h was above 50 µM. Moreover, the “Cytotoxicity (in words)” value in series [6] (summary over the tested cell lines) is reported as “no cytotoxicity”.
Turning to `C=C(C)[C@@H]1CC[C@]2(C(=O)OCc3ccccc3)CC[C@]3(C)[C@H](CC[C@@H]4[C@@]5(C)CC[C@H](O)C(C)(C)[C@@H]5CC[C@]43C)[C@@H]12` [Compound 3, Benzyl (3β)-3-hydroxylup-20(29)-en-28-oate], the IC50 in series [1], in series [2], in series [4], in series [5] and in series [6] was above 50 µM in each case. For the same compound, the “Cytotoxicity (in words)” value in series [7] was “no cytotoxicity”. In addition, in “in vitro”, the IC50 at 72 h was above 50 µM.
As for `C#CCO[C@H]1CC[C@]2(C)[C@H]3CC[C@@H]4[C@H]5[C@H](C(=C)C)CC[C@]5(C(=O)OCc5ccccc5)CC[C@@]4(C)[C@]3(C)CC[C@H]2C1(C)C` [Compound 4, Benzyl (3β)-3-(prop-2-yn-1-yloxy)lup-20(29)-en-28-oate], the IC50 in series [1], in series [2], in series [4], in series [5] and in series [6] was above 50 µM each time. The “Cytotoxicity (in words)” value in series [7] is “no cytotoxicity”. The IC50 at 72 h in the series “in vitro” was above 50 µM.
Take `C=C(C)[C@@H]1CC[C@]2(C(=O)OCc3ccccc3)CC[C@]3(C)[C@H](CC[C@@H]4[C@@]5(C)CC[C@H](OCc6cn(CCCCC(=O)O)nn6)C(C)(C)[C@@H]5CC[C@]43C)[C@@H]12` [Compound 5, 5-[4-({[(3β)-28-(Benzyloxy)-28-oxolup-20(29)-en-3-yl]oxy}-methyl)-1H-1,2,3-triazol-1-yl]pentanoic acid]: the IC50 in series [1] amounted to 19.4 ± 2.1 µM; in series [2], 15.8 ± 0.6 µM; in series [4] it was 49.5 ± 0.7 µM; in series [5], 20.3 ± 4.4 µM. The compound also returned an IC50 at 72 h in the series “in vitro” above 50 µM.
`C=C(C)[C@@H]1CC[C@]2(C(=O)O)CC[C@]3(C)[C@H](CC[C@@H]4[C@@]5(C)CC[C@H](OCc6cn(CCCCC(=O)O)nn6)C(C)(C)[C@@H]5CC[C@]43C)[C@@H]12` [Compound 6, (3β)-3-{[1-(4-Carboxybutyl)-1H-1,2,3-triazol-4-yl]methoxy}lup-20(29)-en-28-oic Acid]: the IC50 in series [1], in series [2], in series [4] and in series [5] was above 50 µM in each case. For the same compound, the “Cytotoxicity (in words)” value in series [7] is “inactive”. In addition, the IC50 at 72 h in “in vitro” was above 50 µM.
Consider `C=C(C)[C@@H]1CC[C@]2(C(=O)OCc3ccccc3)CC[C@]3(C)[C@H](CC[C@@H]4[C@@]5(C)CC[C@H](OCc6cn(CCCCC(=O)O[C@H]7CC[C@@]8(C)C(=CC[C@H]9[C@@H]%10C[C@@H]%11O[C@]%12(CC[C@@H](C)CO%12)[C@@H](C)[C@@H]%11[C@@]%10(C)CC[C@@H]98)C7)nn6)C(C)(C)[C@@H]5CC[C@]43C)[C@@H]12` [Compound 7, Benzyl (3β)-3-[(1-{5-oxo-5-[(3β,25R)-spirost-5-en-3-yloxy]pentyl}-1H-1,2,3-triazol-4-yl)methoxy]lup-20(29)-en-28-oate], for which the IC50 in series [1] was above 50 µM; in series [2], 6.5 ± 1.1 µM; in series [4], above 50 µM; in series [5], above 50 µM. In addition, the “Cytotoxicity (in words)” value in series [7] is “medium to weak multifarious cytotoxicity”. Besides, the IC50 at 72 h in “in vitro” amounted to 46.2 ± 2.8 µM.
For the compound `C=C(C)[C@@H]1CC[C@]2(C(=O)O)CC[C@]3(C)[C@H](CC[C@@H]4[C@@]5(C)CC[C@H](OCc6cn(CCCCC(=O)O[C@H]7CC[C@@]8(C)C(=CC[C@H]9[C@@H]%10C[C@@H]%11O[C@]%12(CC[C@@H](C)CO%12)[C@@H](C)[C@@H]%11[C@@]%10(C)CC[C@@H]98)C7)nn6)C(C)(C)[C@@H]5CC[C@]43C)[C@@H]12` [Compound 8, (3β)-3-[(1-{5-Oxo-5-[(3β,25R)-spirost-5-en-3-yloxy]pentyl}-1H-1,2,3-triazol-4-yl]methoxy}lup-20(29)-en-28-oic Acid], the IC50 in series [1], in series [2], in series [4] and in series [5] was above 50 µM in each case. In addition, the IC50 at 72 h in the series “in vitro” was above 50 µM.
With `COc1cccc2c1C(=O)c1c(O)c3c(c(O)c1C2=O)C[C@@](O)(C(=O)CO)C[C@@H]3O[C@H]1C[C@H](N)[C@H](O)[C@H](C)O1` [Doxorubicin, reference compound], the half-inhibitory concentration (IC50) in series [1] stood at 0.524 ± 0.177 µM. The same compound registered an IC50 at 72 h in series [3] of 0.278 ± 0.036 µM.
